Data reported in publication PMC6792352, “Limited Chemical Structural Diversity Found to Modulate Thyroid Hormone Receptor in the Tox21 Chemical Library” (Environmental Health Perspectives, 2019).
Where a name gives a salt, the structure may show the parent alone.

Test: in vitro
Conditions: rat, gh3-tre-luc cells

SMILES	CC50 at 24 h (AC50 (uM) modified / 1000)	further results
CC(Cc1ccccc1)(NC(=O)CN)c1ccccc1 (stereo not shown) [Remacemide hydrochloride]	> 50 µM	
CCC(c1ccccc1)c1noc(CCN(CC)CC)n1 (stereo not shown) [Proxazole citrate]	> 50 µM	
Cc1cc(O)c(Cl)c(C)c1Cl [2,4-Dichloro-3,5-dimethylphenol]	56.9 µM	
O=P(O)(O)C(O)(Cc1cnc2ccccn12)P(=O)(O)O [Minodronic acid]	> 50 µM	
CCc1oc2ccccc2c1C(=O)c1cc(I)c(O)c(I)c1 [Benziodarone]	24.8 µM	
Nc1nc2c(c(=O)[nH]1)N(C=O)C(CNc1ccc(C(=O)N[C@@H](CCC(=O)O)C(=O)O)cc1)CN2 (stereo partly shown) [Calcium folinate pentahydrate]	> 20 µM	
C[N+]1(C)CCCC(OC(=O)C(O)(c2ccccc2)c2ccccc2)C1 (stereo not shown) [Mepenzolate bromide]	> 20 µM	
O=C(NCCN1CCOCC1)c1ccc(Cl)cc1 [Moclobemide]	> 50 µM	
Nc1ccc([N+](=O)[O-])cc1 [4-Nitroaniline]	> 90 µM	
CC1=C(C(=O)OC(C)C)C(c2cccc([N+](=O)[O-])c2)C(C(=O)OC2CN(C(c3ccccc3)c3ccccc3)C2)=C(N)N1 (stereo not shown) [Azelnidipine]	4.41 µM	
C=C(C)C(=O)NCCC[N+](C)(C)C [N,N,N-Trimethyl-3-[(2-methylacryloyl)amino]propan-1-aminium chloride]	> 90 µM	
Nc1ccc(N=Nc2ccc(-c3ccc(N=Nc4c(S(=O)(=O)O)cc5cc(S(=O)(=O)O)c(N=Nc6ccccc6)c(O)c5c4N)cc3)cc2)c(N)c1 [C.I. Direct Black 38]		CC50 at 24 h (AC50 (uM) modified / 1000, Tox21_110001=Tox21_302342, viability, 1 nM T3 present, 24 h): > 60 µM
CCOC(=O)CC(=O)c1ccccc1 [Ethyl benzoylacetate]	> 90 µM	
CCOc1ccccc1OCCN[C@H](C)Cc1ccc(OC)c(S(N)(=O)=O)c1 [Tamsulosin hydrochloride]	> 50 µM	
CC[C@H]1OC(=O)[C@H](C)C(=O)[C@H](C)[C@@H](O[C@@H]2O[C@H](C)C[C@H](N(C)C)[C@H]2O)[C@](C)(OC)C[C@@H](C)C(=O)[C@H](C)[C@H]2N(CCCCn3cnc(-c4cccnc4)c3)C(=O)O[C@]12C [Telithromycin]	> 50 µM	
c1ccc2ncccc2c1 [Quinoline]	> 90 µM	
Cc1c(C(C)C)c(=O)n(-c2ccccc2)n1C [Propyphenazone]	> 50 µM	
C=CC(=O)OCCOCCOC(=O)C=C [Diethylene glycol diacrylate]	21.6 µM	
N=C(N)NCCCCCCC(=O)NC(O)C(=O)NCCCCNCCCN (stereo not shown) [Gusperimus trihydrochloride]	> 50 µM	
CC(O)CNCC(C)O (stereo not shown) [Diisopropanolamine]	> 90 µM	
C=CC(=O)OCCCCCC [Hexyl acrylate]	> 90 µM	
Cc1cc(-n2nc3ccc(Cl)cc3n2)c(O)c(C(C)(C)C)c1 [Bumetrizole]	> 50 µM	

SMILES	CC50 at 24 h (AC50 (uM) modified / 1000)	further results
COc1ccc(-c2coc3cc(O)ccc3c2=O)cc1 [Formononetin]	> 90 µM	
CCCCCCCCCCCCOCCOS(=O)(=O)O [Sodium lauryl polyoxyethylene ether sulfate]	41 µM	
Cc1cc(C(C)(C)c2cc(C)c(O)c(C)c2)cc(C)c1O [4,4'-Propane-2,2-diylbis(2,6-dimethylphenol)]	16.9 µM	
C=C(Cl)CSC(=S)N(CC)CC [Sulfallate]		CC50 at 24 h (AC50 (uM) modified / 1000, Tox21_110001=Tox21_200042, viability, 1 nM T3 present, 24 h): > 100 µM
COCC(C)OCC(C)O (stereo not shown) [Dipropylene glycol monomethyl ether]	> 90 µM	
Cn1c(=O)c2c(ncn2CC2OCCO2)n(C)c1=O [Doxofylline]	> 50 µM	
Cc1onc(-c2ccccc2Cl)c1C(=O)N[C@@H]1C(=O)N2[C@@H]1SC(C)(C)[C@@H]2C(=O)O [Cloxacillin sodium]	> 20 µM	
CCCC(=O)OCC [Ethyl butyrate]	> 90 µM	
O=C(O)c1ccco1 [2-Furancarboxylic acid]	> 90 µM	
O=S(=O)(Oc1ccc(Cl)cc1)c1ccc(Cl)cc1 [Chlorfenson]	> 90 µM	
COC(=O)CCC(=O)CN [Methyl aminolevulinate hydrochloride]	> 50 µM	
Nc1c(Cl)cc(Cl)cc1[N+](=O)[O-] [2,4-Dichloro-6-nitroaniline]	> 90 µM	
COc1ccccc1OC(=O)Oc1ccccc1OC [Guaiacol carbonate]	> 50 µM	
CCC(=O)OCCc1ccccc1 [2-Phenylethyl propionate]	> 90 µM	
Cc1cc(-c2ccc(/N=N/c3c(S(=O)(=O)O)cc4cc(S(=O)(=O)O)cc(N)c4c3O)c(C)c2)ccc1/N=N/c1c(S(=O)(=O)O)cc2cc(S(=O)(=O)O)cc(N)c2c1O [C.I. Direct Blue 14]	22.8 µM	
CCCC(O)C(CC)CO (stereo not shown) [2-Ethyl-1,3-hexanediol]	> 90 µM	
Cc1ccc(C(C)(C)O)cc1 [p-Cymen-8-ol]	> 90 µM	
CNCCS(=O)(=O)O [Sodium 2-(methylamino)ethanesulfonate]	> 90 µM	
CC(C)(C)OC(=O)N1CC(N)C1 [Lithium sulfate]	> 5 µM	
Cc1cccc(C(=O)O)c1[N+](=O)[O-] [3-Methyl-2-nitrobenzoic acid]	> 90 µM	
CC(C)COC(=O)/C=C/c1ccccc1 [Isobutyl 3-phenylacrylate]	> 90 µM	
Cc1ccccc1NC(=N)NC(=N)N [1-(o-Tolyl)biguanide]	> 90 µM	

SMILES	CC50 at 24 h (AC50 (uM) modified / 1000)	further results
C=CCOCC(O)CCl (stereo not shown) [Allyl 3-chloro-2-hydroxypropyl ether]	> 90 µM	
[O-][n+]1cccc(CO)c1 [Mepiroxol]	> 50 µM	
CCC(=O)c1ccccc1 [1-Phenylpropan-1-one]		CC50 at 24 h (AC50 (uM) modified / 1000, Tox21_110001=Tox21_302025, viability, 1 nM T3 present, 24 h): > 90 µM
CCC(=O)OCC(=O)[C@@]1(OC(=O)CC)[C@@H](C)C[C@H]2[C@@H]3CCC4=CC(=O)C=C[C@]4(C)[C@@]3(F)[C@@H](O)C[C@@]21C [Betamethasone dipropionate]	> 50 µM	
CCCCCC=CCC(=O)OC [Methyl 3-nonenoate]	> 90 µM	
O=P(O)(O)C(Sc1ccc(Cl)cc1)P(=O)(O)O [Tiludronate disodium]	> 50 µM	
CCOC(=O)/C=C(C)/C=C/C=C(C)/C=C/c1c(C)cc(OC)c(C)c1C [Etretinate]	> 50 µM	
CC(=O)Nc1cccc(N)c1 [3-Aminoacetanilide]	> 90 µM	
O=C(O)Cc1sc(-c2ccccc2)nc1-c1ccc(Cl)cc1 [Fentiazac]	> 50 µM	
Nc1ccc(-c2ccccc2)cc1 [4-Biphenylamine]		CC50 at 24 h (AC50 (uM) modified / 1000, Tox21_110001=Tox21_200376, viability, 1 nM T3 present, 24 h): > 90 µM
C=C(C)C(=O)OCCCCCC [Hexyl methacrylate]	> 90 µM	
COCC(C)OC(C)=O (stereo not shown) [1-Methoxy-2-propyl acetate]	> 90 µM	
CC#CCC(C)[C@H](O)/C=C/[C@@H]1[C@H]2c3cccc(CCCC(=O)O)c3O[C@H]2C[C@H]1O (mixture of isomers) [Beraprost sodium]	> 50 µM	
CCOC(=O)c1cc(-c2ccccc2)nc2ccc(C)cc12 [Neocinchophen]	44.6 µM	
CC(C)NCC(O)c1ccc(N)c(C#N)c1 (stereo not shown) [Cimaterol]	> 50 µM	
CNNC [1,2-Dimethylhydrazine dihydrochloride]		CC50 at 24 h (AC50 (uM) modified / 1000, Tox21_110001=Tox21_201194, viability, 1 nM T3 present, 24 h): > 90 µM
O=C(Oc1ccccc1)c1ccccc1C(=O)Oc1ccccc1 [Diphenyl phthalate]	53.7 µM	
Cc1ccc2c(n1)Oc1ccc(C(C)C(=O)OCC(=O)N(C)C)cc1C2 (stereo not shown) [Mepranoprofen arbamel]	> 50 µM	
CNC1(c2ccccc2Cl)CCCCC1=O (stereo not shown) [Ketamine]	> 50 µM	
C1COC1 [1,3-Propylene oxide]	> 90 µM	
